What all share (format): biochemical
One test deals with T1, HCMV polymerase (Human cytomegalovirus, UniProt P08546).
T1 construct: made in house; host or cells: recombinant baculovirus-infected SF-9 cells
Put plainly: HCMV polymerase assay (scintillation proximity assay, modified version). Particulars: modified SPA assay, compounds diluted in 100% DMSO, 4.5 mM DTT. The method, then: (§1) The HCMV polymerase assay is performed using a scintillation proximity assay (SPA) as described in several references, such as N. D. Cook, et al., Pharmaceutical Manufacturing International, pages 49-53 (1992); K. Takeuchi, Laboratory Practice, September issue (1992); U.S. Pat. No. 4,568,649 (1986); which are incorporated by reference herein. Reactions are performed in 96-well plates. The assay is conducted in 100 μl volume with 5.4 mM HEPES (pH 7.5), 11.7 mM KCl, 4.5 mM MgCl2, 0.36 mg/ml BSA, and 90 nM ^3H-dTTP. Assays are run with and without CHAPS, (3-[(3-Cholamidopropyl)-dimethylammonio]-1-propane-sulfonate) at a final concentration of 2 mM. HCMV polymerase is diluted in enzyme dilution buffer containing 50% glycerol, 250 mM NaCl, 10 mM HEPES (pH 7.5), 100 μg/ml BSA, and 0.01% sodium azide. The HCMV polymerase, which is expressed in recombinant baculovirus-infected SF-9 cells and purified according to literature procedures, is added at 10% (or 10 μl) of the final reaction volume, i.e., 100 μl. Compounds are diluted in 50% DMSO and 10 μl are added to each well. Control wells contain an equivalent concentration of DMSO. Unless noted otherwise, reactions are initiated via the addition of 6 nM biotinylated poly(dA)-oligo(dT) template/primer to reaction mixtures containing the enzyme, substrate, and compounds of interest. Plates are incubated in a 25 C or 37 C H2O bath and terminated via the addition of 40 μl/reaction of 0.5 M EDTA (pH 8) per well. Reactions are terminated within the time-frame during which substrate incorporation is linear and varied depending upon the enzyme and conditions used, i.e., 30 min. for HCMV polymerase. Ten μl of streptavidin-SPA beads (20 mg/ml in PBS/10% glycerol) are added following termination of the reaction. Plates are incubated 10 min. at 37 C, then equilibrated to room temperature, and counted on a Packard Topcount. Linear regressions are performed and IC50's are calculated using computer software.
A modified version of the above HCMV polymerase assay is performed as described above, but with the following changes: Compounds are diluted in 100% DMSO until final dilution into assay buffer. In the previous assay, compounds are diluted in 50% DMSO. 4.5 mM dithiotherotol (DTT) is added to the polymerase buffer. […] Other viral polymerase assays are performed using procedures similar to those described above.
In general terms: In a scintillation proximity assay essentially only radioactivity close to the scintillant gives light.

For a further test, the target named is HSV polymerase (Human herpesvirus 1, UniProt P04293). Put plainly: HSV polymerase assay (similar procedure). The method, then: as §1, with “Unless noted otherwise, reactions are initiated via the addition of 6 nM biotinylated poly(dA)-oligo(dT) template/primer to reaction mixtures containing the enzyme, substrate, and compounds of interest. Plates are incubated in a 25 C or 37 C H2O bath and terminated via the addition of 40 μl/reaction of 0.5 M EDTA (pH 8) per well. Reactions are terminated within the time-frame during which substrate incorporation is linear and varied depending upon the enzyme and conditions used, i.e., 30 min. for HCMV polymerase. Ten μl of streptavidin-SPA beads (20 mg/ml in PBS/10% glycerol) are added following termination of the reaction.” left out, “software. […]” for “software.”
HSV polymerase, sequence (P04293 whole entry): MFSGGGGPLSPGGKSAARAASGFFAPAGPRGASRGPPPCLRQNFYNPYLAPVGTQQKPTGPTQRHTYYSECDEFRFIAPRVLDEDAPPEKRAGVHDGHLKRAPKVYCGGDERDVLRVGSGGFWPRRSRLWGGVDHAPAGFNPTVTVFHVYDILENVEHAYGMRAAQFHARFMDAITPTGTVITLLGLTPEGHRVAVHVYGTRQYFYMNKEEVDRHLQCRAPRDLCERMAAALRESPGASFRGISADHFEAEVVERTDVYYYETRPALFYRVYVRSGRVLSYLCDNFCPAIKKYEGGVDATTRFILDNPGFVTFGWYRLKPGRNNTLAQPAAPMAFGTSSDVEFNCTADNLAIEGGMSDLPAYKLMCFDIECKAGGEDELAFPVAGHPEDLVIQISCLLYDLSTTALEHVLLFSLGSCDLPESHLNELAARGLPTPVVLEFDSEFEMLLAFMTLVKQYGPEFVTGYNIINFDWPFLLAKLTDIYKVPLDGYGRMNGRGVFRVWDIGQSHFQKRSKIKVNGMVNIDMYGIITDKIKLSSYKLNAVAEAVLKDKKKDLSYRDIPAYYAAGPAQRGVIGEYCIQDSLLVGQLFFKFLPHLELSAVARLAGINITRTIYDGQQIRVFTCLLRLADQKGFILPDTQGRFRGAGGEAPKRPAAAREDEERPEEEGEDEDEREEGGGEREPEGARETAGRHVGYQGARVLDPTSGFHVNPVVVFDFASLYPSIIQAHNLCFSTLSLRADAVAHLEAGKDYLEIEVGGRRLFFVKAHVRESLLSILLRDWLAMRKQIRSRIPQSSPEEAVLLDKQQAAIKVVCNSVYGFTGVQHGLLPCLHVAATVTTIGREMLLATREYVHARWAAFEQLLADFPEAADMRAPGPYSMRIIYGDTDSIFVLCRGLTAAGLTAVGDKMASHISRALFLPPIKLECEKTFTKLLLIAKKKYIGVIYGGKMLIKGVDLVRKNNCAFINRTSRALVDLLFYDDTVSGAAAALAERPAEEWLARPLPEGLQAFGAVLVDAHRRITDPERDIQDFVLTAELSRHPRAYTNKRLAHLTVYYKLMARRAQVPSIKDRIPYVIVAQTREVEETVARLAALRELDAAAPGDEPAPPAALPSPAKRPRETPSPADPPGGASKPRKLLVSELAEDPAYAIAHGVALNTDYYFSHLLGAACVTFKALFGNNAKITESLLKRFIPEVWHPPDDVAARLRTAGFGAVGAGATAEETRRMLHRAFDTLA

The target of a further test is VZV polymerase (Varicella-zoster virus, UniProt P09252). The experiment in a line: VZV polymerase assay (similar procedure). The method, then: as §1, with “Unless noted otherwise, reactions are initiated via the addition of 6 nM biotinylated poly(dA)-oligo(dT) template/primer to reaction mixtures containing the enzyme, substrate, and compounds of interest. Plates are incubated in a 25 C or 37 C H2O bath and terminated via the addition of 40 μl/reaction of 0.5 M EDTA (pH 8) per well. Reactions are terminated within the time-frame during which substrate incorporation is linear and varied depending upon the enzyme and conditions used, i.e., 30 min. for HCMV polymerase. Ten μl of streptavidin-SPA beads (20 mg/ml in PBS/10% glycerol) are added following termination of the reaction.” left out, “software. […]” for “software.”
VZV polymerase, sequence (P09252 whole entry): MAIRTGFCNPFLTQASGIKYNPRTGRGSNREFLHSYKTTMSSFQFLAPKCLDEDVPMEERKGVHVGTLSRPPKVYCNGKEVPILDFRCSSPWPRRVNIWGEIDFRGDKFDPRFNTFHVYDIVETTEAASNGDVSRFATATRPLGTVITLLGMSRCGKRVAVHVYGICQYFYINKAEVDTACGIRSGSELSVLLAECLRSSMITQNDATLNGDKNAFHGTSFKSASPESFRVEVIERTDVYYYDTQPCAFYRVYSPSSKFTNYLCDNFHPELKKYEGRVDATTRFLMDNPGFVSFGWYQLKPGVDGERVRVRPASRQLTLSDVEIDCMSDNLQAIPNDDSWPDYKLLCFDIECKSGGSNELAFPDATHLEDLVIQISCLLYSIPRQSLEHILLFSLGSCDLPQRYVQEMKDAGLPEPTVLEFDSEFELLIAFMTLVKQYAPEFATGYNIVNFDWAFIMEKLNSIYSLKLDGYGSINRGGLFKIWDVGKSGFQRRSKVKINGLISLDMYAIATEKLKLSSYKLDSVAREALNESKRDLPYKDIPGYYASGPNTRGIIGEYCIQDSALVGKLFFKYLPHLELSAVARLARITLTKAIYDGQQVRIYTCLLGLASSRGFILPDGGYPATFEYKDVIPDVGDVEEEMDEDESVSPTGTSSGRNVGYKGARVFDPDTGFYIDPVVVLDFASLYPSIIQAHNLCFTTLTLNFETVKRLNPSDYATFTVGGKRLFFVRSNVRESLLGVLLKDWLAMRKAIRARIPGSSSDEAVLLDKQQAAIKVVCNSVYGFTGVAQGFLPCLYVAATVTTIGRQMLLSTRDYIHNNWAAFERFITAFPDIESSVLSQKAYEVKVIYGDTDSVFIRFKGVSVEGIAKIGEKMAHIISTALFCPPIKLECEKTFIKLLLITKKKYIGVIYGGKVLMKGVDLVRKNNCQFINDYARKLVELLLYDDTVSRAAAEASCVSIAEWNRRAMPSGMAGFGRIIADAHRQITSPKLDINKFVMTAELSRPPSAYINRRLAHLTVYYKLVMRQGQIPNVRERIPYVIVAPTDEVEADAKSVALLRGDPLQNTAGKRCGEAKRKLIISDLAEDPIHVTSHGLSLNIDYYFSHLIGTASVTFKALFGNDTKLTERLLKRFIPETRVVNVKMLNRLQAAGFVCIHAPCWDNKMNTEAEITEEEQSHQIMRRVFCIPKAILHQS

Results on 4 compounds are retold here after patent US6340680B1, “Oxazinoquinolones useful for the treatment of viral infections” (Pharmacia and Upjohn Company, priority 1999, dated 2002).

A word on the IC50: it is the concentration at which inhibition is half-maximal. Low readings indicate greater potency in that assay, high ones weaker potency in that assay.

Bounds are passed on as bounds.

T1 sequence (P08546 whole entry): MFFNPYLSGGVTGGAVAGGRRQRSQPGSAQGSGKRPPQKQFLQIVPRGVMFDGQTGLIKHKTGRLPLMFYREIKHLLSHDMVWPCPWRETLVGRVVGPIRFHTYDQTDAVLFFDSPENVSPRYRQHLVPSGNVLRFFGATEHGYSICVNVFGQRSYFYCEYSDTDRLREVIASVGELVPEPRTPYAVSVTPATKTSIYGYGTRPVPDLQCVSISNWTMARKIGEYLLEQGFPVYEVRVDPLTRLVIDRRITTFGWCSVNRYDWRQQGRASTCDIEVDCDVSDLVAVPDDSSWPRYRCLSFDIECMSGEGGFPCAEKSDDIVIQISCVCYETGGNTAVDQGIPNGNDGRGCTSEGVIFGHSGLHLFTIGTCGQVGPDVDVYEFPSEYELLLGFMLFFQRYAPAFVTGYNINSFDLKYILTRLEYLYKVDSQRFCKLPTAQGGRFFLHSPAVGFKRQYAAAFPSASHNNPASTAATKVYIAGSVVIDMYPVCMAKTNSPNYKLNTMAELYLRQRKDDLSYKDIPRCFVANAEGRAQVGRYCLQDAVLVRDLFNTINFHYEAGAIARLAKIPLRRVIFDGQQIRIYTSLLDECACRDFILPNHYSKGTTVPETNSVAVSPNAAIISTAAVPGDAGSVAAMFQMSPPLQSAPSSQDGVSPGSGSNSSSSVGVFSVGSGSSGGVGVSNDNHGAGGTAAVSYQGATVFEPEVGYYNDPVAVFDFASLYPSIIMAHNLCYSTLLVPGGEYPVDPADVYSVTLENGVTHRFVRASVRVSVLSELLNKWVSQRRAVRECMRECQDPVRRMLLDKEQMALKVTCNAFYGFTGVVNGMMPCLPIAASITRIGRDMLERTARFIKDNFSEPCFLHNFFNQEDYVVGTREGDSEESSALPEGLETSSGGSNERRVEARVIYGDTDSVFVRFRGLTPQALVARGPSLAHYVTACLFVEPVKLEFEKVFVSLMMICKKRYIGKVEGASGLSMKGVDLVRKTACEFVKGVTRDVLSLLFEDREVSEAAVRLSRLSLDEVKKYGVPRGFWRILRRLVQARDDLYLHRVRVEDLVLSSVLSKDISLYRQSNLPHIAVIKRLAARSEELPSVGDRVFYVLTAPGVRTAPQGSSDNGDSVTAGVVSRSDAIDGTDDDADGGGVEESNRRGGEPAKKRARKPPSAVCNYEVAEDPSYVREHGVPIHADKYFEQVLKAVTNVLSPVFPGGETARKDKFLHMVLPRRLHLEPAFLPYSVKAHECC

As to `CCCc1cc2c3c(c1)c(=O)c(C(=O)NCc1ccc(Cl)cc1)cn3CCO2` [Example 3B, N-(4-Chlorobenzyl)-7-oxo-9-propyl-2,3-dihydro-7H-[1,4]oxazino[2,3,4-ij]quinoline-6-carboxamide], the midpoint of inhibition at HCMV polymerase, the IC50, lay at 1.8 µM. In other words, the single-digit micromolar range.
For the compound `O=C(NCc1ccc(Cl)cc1)c1cn2c3c(cc(C#CCO)cc3c1=O)OCC2` [Example 2, N-(4-Chlorobenzyl)-9-(3-hydroxy-1-propynyl)-7-oxo-2,3-dihydro-7H-[1,4]oxazino[2,3,4-ij]quinoline-6-carboxamide], half-maximal inhibition at HCMV polymerase (IC50) was put at 1.2 µM. Against the preceding compound, the IC50 is about 1.5-fold lower.
`O=C(NCc1ccc(Cl)cc1)c1cn2c3c(cc(CCCO)cc3c1=O)OCC2` [Example 3A, N-(4-Chlorobenzyl)-9-(3-hydroxypropyl)-7-oxo-2,3-dihydro-7H-[1,4]oxazino[2,3,4-ij]quinoline-6-carboxamide]: the 50% inhibitory concentration (IC50) on HSV polymerase is 0.44 µM; on VZV polymerase, 0.21 µM; on HCMV polymerase it was less than 0.31 µM.
Regarding `O=C(NCc1ccc(Cl)cc1)c1cn2c3c(cc(CN4CCOCC4)cc3c1=O)OCC2` [Example 1, N-(4-Chlorobenzyl)-9-(4-morpholinylmethyl)-7-oxo-2,3-dihydro-7H-[1,4]oxazino[2,3,4-ij]quinoline-6-carboxamide], half-maximal inhibition against HCMV polymerase (IC50) was put at 0.48 µM.
